Laboratory results from ChEMBL document CHEMBL5223072, “A look around the West Indies: The spices of life are secondary metabolites” (Bioorg Med Chem, 2020).
Converted amounts (≈) assume the structure as drawn. Values belong to the compound of their own block, whether it stands above or below them.

How the values were obtained:
A549 [1] = test: Antiproliferative activity against human A549 cells assessed as cell growth inhibition measured for 72 hrs; assay type: functional, cell-based; conditions: A549, 72 h
SK-OV-3 = test: Antiproliferative activity against human SK-OV-3 cells assessed as cell growth inhibition measured for 72 hrs; assay type: functional, cell-based; conditions: SK-OV-3, 72 h
HCT-116 = test: Cytotoxicity against human HCT-116 cells assessed as reduction in cell viability; assay type: functional, cell-based
[2] = Inhibition of Saccharomyces cerevisiae 20S proteosome
NCI-H460 = test: Cytotoxicity against human NCI-H460 cells assessed as reduction in cell viability; assay type: functional, cell-based
Plasmodium falciparum [3] = test: Antimalarial activity against Plasmodium falciparum W2 assessed as reduction in parasite growth; assay type: functional
Plasmodium falciparum [4] = test: Antimalarial activity against Plasmodium falciparum D6 assessed as reduction in parasite growth; assay type: functional
A549 [5] = test: Antiproliferative activity against human A549 cells assessed as cell viability by WST-8 colorimetric assay; assay type: functional, cell-based
MCF7 = test: Antiproliferative activity against human MCF7 cells assessed as cell viability by WST-8 colorimetric assay; assay type: functional, cell-based
P388 [6] = test: Antiproliferative activity against mouse P388 cells assessed as cell viability by WST-8 colorimetric assay; assay type: functional, cell-based
Leishmania donovani = test: Antileishmanial activity against Leishmania donovani assessed as parasite growth inhibition; assay type: functional, organism-based
[7] = Activation of hypoxia-induced HIF-1 in human T47D cells; assay type: cell-based
Candida albicans [8] = test: Antifungal activity against Candida albicans; assay type: functional
Staphylococcus aureus [9] = test: Antibacterial activity against Staphylococcus aureus SH1000 cultured in iron rich media assessed as reduction in bacterial cell growth; assay type: functional
Staphylococcus aureus [10] = test: Antibacterial activity against Staphylococcus aureus SH1000 cultured in iron depleted media assessed as reduction in bacterial cell growth; assay type: functional
[11] = Inhibition of sodium channel (unknown origin); parameters: species or system Homo sapiens
Streptococcus [12] = test: Antibacterial activity against Streptococcus; assay type: functional
Streptococcus [13] = test: Antibiofilm activity against Streptococcus assessed as inhibition of biofilm maturation; assay type: functional, organism-based
P388 [14] = test: Antiproliferative activity against mouse P388 cells assessed as cell growth inhibition; assay type: functional, cell-based
[15] = Cytotoxicity against human bladder carcinoma cell assessed as reduction in cell viability; assay type: functional, cell-based
OVCAR-3 = test: Cytotoxicity against human OVCAR-3 cells assessed as reduction in cell viability; assay type: functional, cell-based
MAXF401 cell line = test: Cytotoxicity against human NCI-MAXF401 cells assessed as reduction in cell viability; assay type: functional, cell-based
Candida albicans [16] = test: Antifungal activity against Candida albicans as reduction in fungal growth; assay type: functional, organism-based

- IC50 (A549 [1]): 1.8 nM
- IC50 (SK-OV-3): 6.1 nM
SMILES: C=C/C=C\[C@H](C)[C@H](OC(N)=O)[C@@H](C)[C@H](O)[C@@H](C)C/C(C)=C\[C@H](C)[C@@H](O)[C@@H](C)/C=C\[C@@H](O)C[C@@H]1OC(=O)C(C)=C[C@H]1C

- IC50 [2]: 2.6 nM
SMILES: CCCCCC(=O)N[C@H](C(=O)N[C@@H](CCS(C)(=O)=O)C(=O)N[C@@H](CC(C)C)C(=O)[C@@]1(C)CO1)C(C)C
- EC50 (HCT-116): 43 nM
- EC50 (NCI-H460): 6 nM

- MIC (Staphylococcus aureus [9]): 63 µM (≈ 30.2 µg/mL)
- MIC (Staphylococcus aureus [10]): 63 µM (≈ 30.2 µg/mL)
SMILES: CCC(=O)[C@@H](C)C[C@@H](C)C[C@@H](C)CC[C@H](O)CC(=O)[C@H](CC(C)C)[C@H](O)c1cc(O)cc(O)c1

- MIC (Streptococcus [12]): 250 µM (≈ 106 µg/mL)
- IC50 (Streptococcus [13]): 44000 nM
SMILES: C[C@H]1/C=C/[C@H]2OC(C)(C)O[C@H]2C(=O)O[C@H](CCCCCCCC(=O)O)[C@@H](C)CCC1

- IC50 [11]: 5000 nM
SMILES: C=CCCC/C(=C\Cl)CCC(C)/C=C/CCC(=O)NCC/C(=C\C(=O)N1C(=O)C=C[C@@H]1C)OC (some centres not stated)

- MIC (Staphylococcus aureus [9]): 500 µM (≈ 233 µg/mL)
- MIC (Staphylococcus aureus [10]): 500 µM (≈ 233 µg/mL)
SMILES: CC(=O)[C@@H](C)C[C@@H](C)C[C@@H](C)CC[C@H](O)C[C@H](O)[C@H](CC(C)C)[C@H](O)c1cc(O)cc(O)c1

- MIC (Staphylococcus aureus [9]): 8 µM (≈ 3.4 µg/mL)
- MIC (Staphylococcus aureus [10]): 8 µM (≈ 3.4 µg/mL)
SMILES: CCCCCCCCCC[C@H](O)C[C@H](O)[C@H](CC(C)C)[C@H](O)c1cc(O)cc(O)c1

- MIC (Staphylococcus aureus [9]): > 500 µM
- MIC (Staphylococcus aureus [10]): > 500 µM
SMILES: CC[C@H](O)C[C@H](O)[C@H](CC(C)C)[C@H](O)c1cc(O)cc(O)c1

- MIC (Staphylococcus aureus [9]): 500 µM (≈ 227 µg/mL)
- MIC (Staphylococcus aureus [10]): 500 µM (≈ 227 µg/mL)
SMILES: CC(C)C[C@H]([C@H](O)c1cc(O)cc(O)c1)[C@@H](O)C[C@@H](O)CC[C@H](C)C[C@H](C)C[C@H](C)CO

- IC50 (A549 [1]): 3.8 nM
- IC50 (SK-OV-3): 31.3 nM
SMILES: CC(=O)O[C@H]1C(=O)[C@@]2(C)[C@H]([C@H](OC(=O)c3ccccc3)[C@]3(O)C[C@H](OC(=O)[C@H](O)[C@@H](NC(=O)c4ccccc4)c4ccccc4)C(C)=C1C3(C)C)[C@]1(OC(C)=O)CO[C@@H]1C[C@@H]2O [PACLITAXEL]

Further lines, the compound ahead of its results:

SMILES: CC(C)=CCC[C@H](C)c1ccc(C)cc1O
- MIC (Plasmodium falciparum [3]): 3.6 µg/mL (≈ 16.5 µM)
- MIC (Plasmodium falciparum [4]): 1.8 µg/mL (≈ 8.24 µM)

SMILES: CCC[C@H]1C[C@@H](OC)C[C@H](C)C[C@@H]2C[C@@H](OC(=O)/C=C\CCc3coc(/C=C\CNC(=O)OC)n3)C[C@H](CC(=O)O1)O2
- IC50 (A549 [5]): 43.9 nM
- IC50 (MCF7): 33 nM
- IC50 (P388 [6]): 0.72 nM

SMILES: CC(C)=CCC[C@H](C)c1ccc(C)cc1OC(=O)c1ccncc1
- IC50 (Leishmania donovani): 600 nM

SMILES: C=C[C@@H]1CSC(C[C@@H](C)[C@@H](C)C[C@H](C)CCN(C)C(=O)[C@H](C)CC)=N1
- IC50 [7]: 5.6 nM

SMILES: CO[C@H]1[S+]([O-])/C2=C\C(=O)[C@](C)(O[C@H]3CC[C@H](N(C)C)[C@@H](C)O3)[C@H](O)CC/C(C)=C\[C@@H]3[C@@H](C)[C@](C)(Cl)[C@@H](C[C@H]3O[C@H]3CC[C@H](N(C)C)[C@@H](C)O3)OC(=O)[C@@H]3CSC(=N3)[C@]1(C)N2 (some centres not stated)
- MIC (Candida albicans [8]): 16 µg/mL (≈ 17.7 µM)

SMILES: CO/C(=C/C(=O)N1C(=O)C=C[C@@H]1C)CCNC(=O)CC/C=C/C(C)CC/C(=C/Cl)CCCC#CBr (some centres not stated)
- IC50 [11]: 5000 nM

SMILES: CCC(=O)[C@@H](C)C[C@@H](C)C[C@@H](C)CC[C@H](O)C[C@H](O)[C@@H](CC(C)C)[C@H](O)c1cc(O)cc(O)c1
- MIC (Staphylococcus aureus [9]): 125 µM (≈ 60.1 µg/mL)
- MIC (Staphylococcus aureus [10]): 125 µM (≈ 60.1 µg/mL)

SMILES: C#CCCC/C(=C\Cl)CCC(C)/C=C/CCC(=O)NCC/C(=C\C(=O)N1C(=O)C=C[C@@H]1C)OC (some centres not stated)
- IC50 [11]: 5000 nM

SMILES: C[C@H]1/C=C/[C@H]2OC(C)(C)O[C@H]2C(=O)O[C@H](c2cccc(CCCCC(=O)O)c2)[C@@H](C)/C=C/C1
- IC50 (Streptococcus [13]): 63000 nM

SMILES: CCC(=O)[C@@H](C)C[C@@H](C)C[C@@H](C)CC[C@H](O)C[C@H](O)[C@H](CC(C)C)[C@H](O)c1cc(O)cc(O)c1
- MIC (Staphylococcus aureus [9]): 125 µM (≈ 60.1 µg/mL)
- MIC (Staphylococcus aureus [10]): 125 µM (≈ 60.1 µg/mL)

SMILES: CCCCCCOC(=O)C[C@H]1C[C@H](OC(=O)/C=C\CCc2coc(/C=C\CNC(=O)OC)n2)C[C@@H](/C=C/c2ccccc2)O1
- IC50 (A549 [5]): 1.6 nM

SMILES: CCCCCC(=O)N[C@H](C(=O)N[C@@H](CC[S+](C)[O-])C(=O)N[C@@H](CC(C)C)C(=O)[C@@]1(C)CO1)C(C)C (some centres not stated)
- EC50 (HCT-116): 19 nM
- IC50 [2]: 2.5 nM
- EC50 (NCI-H460): 9 nM

SMILES: CCC(=O)CCCCCCC[C@H](O)C[C@H](O)[C@H](CC(C)C)[C@H](O)c1cc(O)cc(O)c1
- MIC (Staphylococcus aureus [9]): > 500 µM
- MIC (Staphylococcus aureus [10]): 250 µM (≈ 110 µg/mL)

SMILES: CCC(=O)[C@@H](C)C[C@@H](C)C[C@@H](C)CC[C@H](O)C[C@H](O)[C@H](CC(C)C)[C@H](O)c1cc(OC)cc(OC)c1
- MIC (Staphylococcus aureus [9]): > 500 µM
- MIC (Staphylococcus aureus [10]): > 500 µM

SMILES: CCCC(=O)[C@@H](C)C[C@@H](C)C[C@@H](C)CC[C@H](O)C[C@H](O)[C@H](CC(C)C)[C@H](O)c1cc(O)cc(O)c1
- MIC (Staphylococcus aureus [9]): 63 µM (≈ 31.2 µg/mL)
- MIC (Staphylococcus aureus [10]): 63 µM (≈ 31.2 µg/mL)

SMILES: C=C/C=C\[C@H](C)[C@H](OC(N)=O)[C@@H](C)[C@H](O)[C@@H](C)C/C(C)=C\[C@H](C)[C@@H](O)[C@@H](C)/C=C\[C@@H](O)C[C@@H]1OC(=O)[C@H](C)[C@@H](O)[C@H]1C [DISERMOLIDE]
- IC50 (A549 [1]): 1.8 nM
- IC50 (P388 [14]): 0.5 µg/mL (≈ 0.842 µM)
- IC50 (SK-OV-3): 6.1 nM

SMILES: CC1=CC[C@H]2[C@](C)(CO)CCC[C@]2(C)[C@H]1C[C@@]12O[C@@H]1C(=O)C(CO)=C[C@H]2O [EPOXYPHOLAMIN A]
- IC50 [15]: 0.017 µg/mL (≈ 0.0452 µM)
- IC50 (OVCAR-3): 0.017 µg/mL (≈ 0.0452 µM)
- IC50 (MAXF401 cell line): 0.01 µg/mL (≈ 0.0266 µM)

SMILES: CC(=O)O[C@@H]1c2nc(cs2)C(=O)O[C@@H](CCCC(C)(Cl)Cl)[C@H](C)C(=O)O[C@@H](C(C)(C)O)c2nc(cs2)C(=O)OC1(C)C [HECTOCHLORIN]
- IC50 (Candida albicans [16]): 20 nM
